Each block holds one compound with its values, some of them ahead of it.
What was measured:
Assay in all cases: radiometric filter-binding kinase assay
MAPKAPK2 (human) = MAPKAPK2 (human) (UniProt P49137)
PIM3 (human) = PIM3 (human) (UniProt Q86V86)
[1] = test system: SGK1 (human), O00141 [S422D]
MAPK9 (human) = MAPK9 (human) (UniProt P45984)
CAMKK2 (human) = CAMKK2 (human) (UniProt Q96RR4)
DYRK1A (human) = DYRK1A (human) (UniProt Q13627)
PRKAA1 or PRKAA2 (rat) = settings: accession and sequence are those of the human protein
MKNK1 (human) = MKNK1 (human) (UniProt Q9BUB5)
PIM2 (human) = PIM2 (human) (UniProt Q9P1W9)
Sequence of PIM2 (human) (Q9P1W9 whole entry, looked up): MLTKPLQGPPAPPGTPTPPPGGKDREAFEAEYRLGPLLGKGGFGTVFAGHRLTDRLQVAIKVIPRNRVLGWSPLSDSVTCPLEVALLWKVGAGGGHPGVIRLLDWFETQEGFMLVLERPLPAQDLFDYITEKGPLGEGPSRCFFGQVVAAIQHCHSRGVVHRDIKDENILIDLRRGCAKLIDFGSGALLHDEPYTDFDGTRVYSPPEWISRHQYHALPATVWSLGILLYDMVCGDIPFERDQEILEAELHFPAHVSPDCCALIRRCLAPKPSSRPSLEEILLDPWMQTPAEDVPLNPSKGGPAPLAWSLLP

MAPKAPK5 (human) = MAPKAPK5 (human) (UniProt Q8IW41)
GSK3B (human) = GSK3B (human) (UniProt P49841)
MAPK3 (human) = MAPK3 (human) (UniProt P27361)
Sequence of MAPK3 (human) (P27361 whole entry, looked up): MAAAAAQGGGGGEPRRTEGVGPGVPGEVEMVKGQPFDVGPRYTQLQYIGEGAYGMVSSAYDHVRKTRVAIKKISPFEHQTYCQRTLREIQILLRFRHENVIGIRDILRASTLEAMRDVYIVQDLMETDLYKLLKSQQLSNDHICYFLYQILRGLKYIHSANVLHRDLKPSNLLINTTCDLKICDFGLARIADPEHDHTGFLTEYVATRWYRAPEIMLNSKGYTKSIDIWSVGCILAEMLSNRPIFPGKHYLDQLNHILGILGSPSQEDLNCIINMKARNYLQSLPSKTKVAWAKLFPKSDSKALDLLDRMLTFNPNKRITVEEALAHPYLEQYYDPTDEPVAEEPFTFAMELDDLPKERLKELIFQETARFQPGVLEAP

PHKG1 (human) = PHKG1 (human) (UniProt Q16816)
EEF2K (human) = EEF2K (human) (UniProt O00418)
SYK (human) = SYK (human) (UniProt P43405)
PRKACA (human) = PRKACA (human) (UniProt P17612)
PRKCZ (human) = PRKCZ (human) (UniProt Q05513)
IKBKE (human) = IKBKE (human) (UniProt Q14164)
BRSK2 (human) = BRSK2 (human) (UniProt Q8IWQ3)
Sequence of BRSK2 (human) (Q8IWQ3 whole entry, looked up): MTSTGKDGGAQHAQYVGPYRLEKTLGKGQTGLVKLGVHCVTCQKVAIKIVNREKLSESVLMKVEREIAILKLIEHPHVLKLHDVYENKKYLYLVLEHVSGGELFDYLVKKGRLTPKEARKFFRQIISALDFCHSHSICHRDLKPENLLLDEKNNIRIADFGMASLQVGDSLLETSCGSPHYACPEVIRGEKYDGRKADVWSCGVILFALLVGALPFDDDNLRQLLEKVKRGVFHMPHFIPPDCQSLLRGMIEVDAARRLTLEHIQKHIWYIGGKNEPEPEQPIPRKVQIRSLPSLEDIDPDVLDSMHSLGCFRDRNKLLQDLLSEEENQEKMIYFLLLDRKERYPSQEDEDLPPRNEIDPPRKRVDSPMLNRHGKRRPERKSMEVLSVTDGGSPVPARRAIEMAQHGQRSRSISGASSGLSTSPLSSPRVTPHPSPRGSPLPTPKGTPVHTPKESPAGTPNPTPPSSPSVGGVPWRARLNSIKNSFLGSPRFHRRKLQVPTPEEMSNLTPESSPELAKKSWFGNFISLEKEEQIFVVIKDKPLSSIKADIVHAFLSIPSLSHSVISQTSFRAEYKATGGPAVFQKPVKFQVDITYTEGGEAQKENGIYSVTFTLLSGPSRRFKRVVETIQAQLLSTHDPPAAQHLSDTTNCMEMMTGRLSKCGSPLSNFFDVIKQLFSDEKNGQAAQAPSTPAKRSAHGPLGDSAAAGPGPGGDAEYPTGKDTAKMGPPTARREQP

STK3 (human) = STK3 (human) (UniProt Q13188)
PIM1 (human) = PIM1 (human) (UniProt P11309)
Sequence of PIM1 (human) (P11309 whole entry, looked up): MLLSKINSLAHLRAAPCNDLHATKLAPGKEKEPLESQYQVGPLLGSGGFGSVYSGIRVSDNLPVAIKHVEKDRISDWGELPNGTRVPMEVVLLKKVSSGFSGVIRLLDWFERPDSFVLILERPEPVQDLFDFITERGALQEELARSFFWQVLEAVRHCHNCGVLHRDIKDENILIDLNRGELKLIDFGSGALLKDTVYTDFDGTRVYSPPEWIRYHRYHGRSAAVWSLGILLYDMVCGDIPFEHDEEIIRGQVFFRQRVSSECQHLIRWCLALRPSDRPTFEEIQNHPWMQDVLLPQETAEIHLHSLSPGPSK

FGFR1 (human) = FGFR1 (human) (UniProt P11362)
Sequence of FGFR1 (human) (P11362 whole entry, looked up): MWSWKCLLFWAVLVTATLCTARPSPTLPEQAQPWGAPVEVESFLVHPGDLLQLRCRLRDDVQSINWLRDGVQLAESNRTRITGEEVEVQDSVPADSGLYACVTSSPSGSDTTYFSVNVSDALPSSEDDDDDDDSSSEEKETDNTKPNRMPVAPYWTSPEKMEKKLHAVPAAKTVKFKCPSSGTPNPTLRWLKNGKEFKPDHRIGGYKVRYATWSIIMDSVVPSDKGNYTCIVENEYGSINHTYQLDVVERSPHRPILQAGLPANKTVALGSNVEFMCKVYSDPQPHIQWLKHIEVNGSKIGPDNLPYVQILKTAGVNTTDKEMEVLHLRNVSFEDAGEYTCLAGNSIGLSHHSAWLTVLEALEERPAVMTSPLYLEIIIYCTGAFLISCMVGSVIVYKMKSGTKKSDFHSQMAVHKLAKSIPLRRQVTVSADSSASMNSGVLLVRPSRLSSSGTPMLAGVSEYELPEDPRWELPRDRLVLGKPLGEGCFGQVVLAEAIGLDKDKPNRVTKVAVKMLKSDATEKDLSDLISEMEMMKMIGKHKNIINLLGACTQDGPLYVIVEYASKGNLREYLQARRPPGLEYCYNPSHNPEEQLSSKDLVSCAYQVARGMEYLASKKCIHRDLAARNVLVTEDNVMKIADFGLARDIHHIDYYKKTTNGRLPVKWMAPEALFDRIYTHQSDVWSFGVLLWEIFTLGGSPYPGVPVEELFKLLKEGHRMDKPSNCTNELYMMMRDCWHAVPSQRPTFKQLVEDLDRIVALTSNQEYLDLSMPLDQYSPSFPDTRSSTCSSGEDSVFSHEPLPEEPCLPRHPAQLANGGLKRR

PAK7 (human) = PAK7 (human) (UniProt Q9P286)
Sequence of PAK7 (human) (Q9P286 whole entry, looked up): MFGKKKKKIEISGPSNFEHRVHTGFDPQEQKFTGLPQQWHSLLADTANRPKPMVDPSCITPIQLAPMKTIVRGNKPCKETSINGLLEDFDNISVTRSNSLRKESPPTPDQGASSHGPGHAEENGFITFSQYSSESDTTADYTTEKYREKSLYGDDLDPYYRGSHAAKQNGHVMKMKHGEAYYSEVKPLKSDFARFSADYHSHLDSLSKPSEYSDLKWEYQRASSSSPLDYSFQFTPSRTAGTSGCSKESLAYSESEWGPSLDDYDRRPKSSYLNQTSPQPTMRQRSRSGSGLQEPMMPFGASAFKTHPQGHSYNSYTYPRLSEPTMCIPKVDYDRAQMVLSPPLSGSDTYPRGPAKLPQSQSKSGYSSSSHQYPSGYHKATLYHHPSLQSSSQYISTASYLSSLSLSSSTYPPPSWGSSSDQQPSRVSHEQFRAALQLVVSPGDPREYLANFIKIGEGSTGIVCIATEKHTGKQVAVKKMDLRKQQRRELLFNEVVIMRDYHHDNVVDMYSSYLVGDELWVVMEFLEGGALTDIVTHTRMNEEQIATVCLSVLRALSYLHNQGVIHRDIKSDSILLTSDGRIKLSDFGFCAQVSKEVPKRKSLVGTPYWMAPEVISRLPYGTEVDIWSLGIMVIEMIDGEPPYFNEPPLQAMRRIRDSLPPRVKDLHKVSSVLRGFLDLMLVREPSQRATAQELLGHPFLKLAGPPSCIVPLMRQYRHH

MAPK13 (human) = MAPK13 (human) (UniProt O15264)
Sequence of MAPK13 (human) (O15264 whole entry, looked up): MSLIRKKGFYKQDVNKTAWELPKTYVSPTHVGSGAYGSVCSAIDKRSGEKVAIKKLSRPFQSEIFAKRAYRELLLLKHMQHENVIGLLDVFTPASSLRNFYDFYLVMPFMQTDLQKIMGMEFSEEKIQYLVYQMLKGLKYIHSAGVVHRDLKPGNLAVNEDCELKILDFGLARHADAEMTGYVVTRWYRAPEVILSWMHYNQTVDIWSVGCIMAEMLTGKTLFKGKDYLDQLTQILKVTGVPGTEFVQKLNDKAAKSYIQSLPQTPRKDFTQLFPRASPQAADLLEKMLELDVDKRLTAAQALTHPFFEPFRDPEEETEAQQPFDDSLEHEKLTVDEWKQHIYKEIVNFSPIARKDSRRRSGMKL

MAPK12 (human) = MAPK12 (human) (UniProt P53778)
MELK (human) = MELK (human) (UniProt Q14680)
IGF1R (human) = IGF1R (human) (UniProt P08069)

Sequence of CAMKK2 (human) (Q96RR4 whole entry, looked up): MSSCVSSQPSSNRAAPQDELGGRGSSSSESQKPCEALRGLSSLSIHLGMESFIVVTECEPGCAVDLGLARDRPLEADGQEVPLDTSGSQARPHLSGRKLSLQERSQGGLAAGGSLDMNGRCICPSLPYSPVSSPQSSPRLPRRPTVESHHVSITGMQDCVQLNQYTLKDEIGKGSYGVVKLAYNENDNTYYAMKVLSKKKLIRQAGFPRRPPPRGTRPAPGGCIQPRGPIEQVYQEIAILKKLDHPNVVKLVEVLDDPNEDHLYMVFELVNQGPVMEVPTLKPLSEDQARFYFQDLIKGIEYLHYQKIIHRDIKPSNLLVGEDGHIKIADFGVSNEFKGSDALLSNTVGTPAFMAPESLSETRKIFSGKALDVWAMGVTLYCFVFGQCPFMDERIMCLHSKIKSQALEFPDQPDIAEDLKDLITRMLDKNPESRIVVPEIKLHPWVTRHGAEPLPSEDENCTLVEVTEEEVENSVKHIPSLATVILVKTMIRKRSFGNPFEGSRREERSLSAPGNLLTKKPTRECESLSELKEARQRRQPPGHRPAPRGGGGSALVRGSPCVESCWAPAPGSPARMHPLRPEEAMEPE
Sequence of SGK1 (human), O00141 [S422D] (O00141 whole entry S422D, looked up): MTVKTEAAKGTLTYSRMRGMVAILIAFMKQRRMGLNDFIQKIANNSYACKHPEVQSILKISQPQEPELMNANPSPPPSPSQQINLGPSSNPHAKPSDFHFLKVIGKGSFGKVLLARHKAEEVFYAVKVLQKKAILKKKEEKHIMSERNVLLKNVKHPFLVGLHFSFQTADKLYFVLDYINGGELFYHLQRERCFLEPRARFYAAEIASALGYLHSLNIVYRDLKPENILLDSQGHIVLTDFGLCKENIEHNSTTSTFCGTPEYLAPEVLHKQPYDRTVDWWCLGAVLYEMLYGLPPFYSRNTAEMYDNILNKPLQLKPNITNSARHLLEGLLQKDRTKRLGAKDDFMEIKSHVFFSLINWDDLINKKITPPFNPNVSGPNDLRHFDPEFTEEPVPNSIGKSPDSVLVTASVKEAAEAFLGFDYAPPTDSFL

- residual activity (MAPKAPK2 (human); compound 1.0 µM): 97%
- residual activity (MAPKAPK2 (human); compound 10.0 µM): 84%
- residual activity (PIM3 (human); compound 1.0 µM): 86%
- residual activity (PIM3 (human); compound 10.0 µM): 72%
- residual activity ([1]; compound 1.0 µM): 111%
- residual activity ([1]; compound 10.0 µM): 109%
- residual activity (MAPK9 (human); compound 10.0 µM): 79%
- residual activity (CAMKK2 (human); compound 1.0 µM): 86%
- residual activity (CAMKK2 (human); compound 10.0 µM): 83%
- residual activity (DYRK1A (human); compound 1.0 µM): 87%
- residual activity (DYRK1A (human); compound 10.0 µM): 59%
- residual activity (PRKAA1 or PRKAA2 (rat); compound 1.0 µM): 94%
- residual activity (PRKAA1 or PRKAA2 (rat); compound 10.0 µM): 91%
- residual activity (MKNK1 (human); compound 1.0 µM): 89%
- residual activity (MKNK1 (human); compound 10.0 µM): 79%
- residual activity (PIM2 (human); compound 1.0 µM): 99%
- residual activity (PIM2 (human); compound 10.0 µM): 106%
- residual activity (MAPKAPK5 (human); compound 10.0 µM): 39%
- residual activity (GSK3B (human); compound 1.0 µM): 87%
- residual activity (GSK3B (human); compound 10.0 µM): 83%
- residual activity (MAPK3 (human); compound 1.0 µM): 115%
- residual activity (PHKG1 (human); compound 1.0 µM): 109%
- residual activity (PHKG1 (human); compound 10.0 µM): 96%
- residual activity (EEF2K (human); compound 1.0 µM): 80%
- residual activity (SYK (human); compound 1.0 µM): 103%
- residual activity (SYK (human); compound 10.0 µM): 85%
- residual activity (PRKACA (human); compound 1.0 µM): 110%
- residual activity (PRKACA (human); compound 10.0 µM): 86%
- residual activity (PRKCZ (human); compound 1.0 µM): 79%
- residual activity (PRKCZ (human); compound 10.0 µM): 74%
- residual activity (IKBKE (human); compound 1.0 µM): 92%
- residual activity (IKBKE (human); compound 10.0 µM): 92%
- residual activity (BRSK2 (human); compound 1.0 µM): 91%
- residual activity (BRSK2 (human); compound 10.0 µM): 78%
- residual activity (STK3 (human); compound 1.0 µM): 97%
- residual activity (STK3 (human); compound 10.0 µM): 122%
- residual activity (PIM1 (human); compound 1.0 µM): 79%
- residual activity (PIM1 (human); compound 10.0 µM): 83%
- residual activity (FGFR1 (human); compound 1.0 µM): 100%
- residual activity (FGFR1 (human); compound 10.0 µM): 81%
- residual activity (PAK7 (human); compound 1.0 µM): 97%
- residual activity (PAK7 (human); compound 10.0 µM): 111%
- residual activity (MAPK13 (human); compound 1.0 µM): 102%
- residual activity (MAPK13 (human); compound 10.0 µM): 105%
- residual activity (MAPK12 (human); compound 1.0 µM): 108%
- residual activity (MAPK12 (human); compound 10.0 µM): 106%
- residual activity (MELK (human); compound 1.0 µM): 79%
- residual activity (MELK (human); compound 10.0 µM): 85%
- residual activity (IGF1R (human); compound 1.0 µM): 87%
SMILES: Cc1cc(SCc2sc(-c3ccc(C(F)(F)F)cc3)nc2C)ccc1OCC(=O)O

- residual activity (MAPKAPK2 (human); compound 1.0 µM): 105%
- residual activity (MAPKAPK2 (human); compound 10.0 µM): 78%
- residual activity (PIM3 (human); compound 0.1 µM): 93%
- residual activity (PIM3 (human); compound 1.0 µM): 88%
- residual activity (PIM3 (human); compound 10.0 µM): 83%
- residual activity ([1]; compound 0.1 µM): 106%
- residual activity ([1]; compound 1.0 µM): 74%
- residual activity ([1]; compound 10.0 µM): 65%
- residual activity (MAPK9 (human); compound 0.1 µM): 92%
- residual activity (MAPK9 (human); compound 1.0 µM): 93%
- residual activity (MAPK9 (human); compound 10.0 µM): 98%
- residual activity (CAMKK2 (human); compound 0.1 µM): 99%
- residual activity (CAMKK2 (human); compound 1.0 µM): 98%
- residual activity (CAMKK2 (human); compound 10.0 µM): 80%
- residual activity (DYRK1A (human); compound 0.1 µM): 99%
- residual activity (DYRK1A (human); compound 1.0 µM): 94%
- residual activity (DYRK1A (human); compound 10.0 µM): 85%
- residual activity (PRKAA1 or PRKAA2 (rat); compound 0.1 µM): 100%
- residual activity (PRKAA1 or PRKAA2 (rat); compound 1.0 µM): 88%
- residual activity (PRKAA1 or PRKAA2 (rat); compound 10.0 µM): 46%
- residual activity (MKNK1 (human); compound 0.1 µM): 101%
- residual activity (MKNK1 (human); compound 1.0 µM): 91%
- residual activity (MKNK1 (human); compound 10.0 µM): 79%
- residual activity (PIM2 (human); compound 0.1 µM): 90%
- residual activity (PIM2 (human); compound 1.0 µM): 90%
- residual activity (PIM2 (human); compound 10.0 µM): 100%
- residual activity (MAPKAPK5 (human); compound 0.1 µM): 114%
- residual activity (MAPKAPK5 (human); compound 1.0 µM): 97%
- residual activity (MAPKAPK5 (human); compound 10.0 µM): 87%
- residual activity (GSK3B (human); compound 0.1 µM): 87%
- residual activity (GSK3B (human); compound 1.0 µM): 96%
- residual activity (GSK3B (human); compound 10.0 µM): 92%
- residual activity (MAPK3 (human); compound 0.1 µM): 93%
- residual activity (MAPK3 (human); compound 1.0 µM): 85%
- residual activity (PHKG1 (human); compound 0.1 µM): 100%
- residual activity (PHKG1 (human); compound 1.0 µM): 96%
- residual activity (PHKG1 (human); compound 10.0 µM): 104%
- residual activity (EEF2K (human); compound 0.1 µM): 90%
- residual activity (EEF2K (human); compound 1.0 µM): 73%
- residual activity (EEF2K (human); compound 10.0 µM): 78%
- residual activity (SYK (human); compound 0.1 µM): 121%
- residual activity (SYK (human); compound 1.0 µM): 100%
- residual activity (SYK (human); compound 10.0 µM): 91%
- residual activity (PRKACA (human); compound 0.1 µM): 84%
- residual activity (PRKACA (human); compound 1.0 µM): 83%
- residual activity (PRKACA (human); compound 10.0 µM): 34%
- residual activity (PRKCZ (human); compound 0.1 µM): 78%
- residual activity (PRKCZ (human); compound 1.0 µM): 75%
- residual activity (PRKCZ (human); compound 10.0 µM): 70%
- residual activity (IKBKE (human); compound 0.1 µM): 103%
- residual activity (IKBKE (human); compound 1.0 µM): 99%
- residual activity (IKBKE (human); compound 10.0 µM): 96%
- residual activity (BRSK2 (human); compound 0.1 µM): 88%
- residual activity (BRSK2 (human); compound 1.0 µM): 84%
- residual activity (BRSK2 (human); compound 10.0 µM): 83%
- residual activity (STK3 (human); compound 0.1 µM): 95%
- residual activity (STK3 (human); compound 1.0 µM): 85%
- residual activity (STK3 (human); compound 10.0 µM): 77%
- residual activity (PIM1 (human); compound 0.1 µM): 88%
- residual activity (PIM1 (human); compound 1.0 µM): 90%
- residual activity (PIM1 (human); compound 10.0 µM): 78%
- residual activity (FGFR1 (human); compound 0.1 µM): 91%
- residual activity (FGFR1 (human); compound 1.0 µM): 92%
- residual activity (FGFR1 (human); compound 10.0 µM): 63%
- residual activity (PAK7 (human); compound 1.0 µM): 88%
- residual activity (PAK7 (human); compound 10.0 µM): 87%
- residual activity (MAPK13 (human); compound 0.1 µM): 89%
- residual activity (MAPK13 (human); compound 1.0 µM): 82%
- residual activity (MAPK13 (human); compound 10.0 µM): 91%
- residual activity (MAPK12 (human); compound 0.1 µM): 107%
- residual activity (MAPK12 (human); compound 1.0 µM): 102%
- residual activity (MAPK12 (human); compound 10.0 µM): 103%
- residual activity (MELK (human); compound 0.1 µM): 94%
- residual activity (MELK (human); compound 1.0 µM): 101%
- residual activity (MELK (human); compound 10.0 µM): 87%
- residual activity (IGF1R (human); compound 0.1 µM): 72%
- residual activity (IGF1R (human); compound 1.0 µM): 95%
- residual activity (IGF1R (human); compound 10.0 µM): 82%
SMILES: CCc1cncnc1N1CCN(Cc2nc3cc(C(F)(F)F)ccc3[nH]2)CC1
